This experiment deals with T1, CDK2/Cyclin E (Homo sapiens, UniProt P24941).
T1 construct: made in house; host or cells: Sf21 (Spodoptera frugiperda) insect cells, baculovirus co-infection, for CDK2/cyclin E. E. coli BL21 (DE3) pLysS for the GST-Rb substrate
The experiment can be described thus: in vitro kinase assay, Scintillation Proximity Assay, incorporation of [γ-33-P]-ATP into GST-Rb. The settings on record: in-vitro SPA kinase assay, GST-Rb substrate, read-out: CDK2 inhibitory activity IC50. The experiment is classed as biochemical. The method, then: The compounds were tested in an in vitro kinase assay in 96 well format using Scintillation Proximity Assay (SPA—obtained from Amersham) for measuring incorporation of [γ-33-P]-Adenosine Triphosphate into a test substrate (GST-Retinoblastoma protein; GST-Rb). In each well was placed the compound to be tested (diluted in DMSO and water to correct concentrations) and in control wells either roscovitine as an inhibitor control or DMSO as a positive control. […]
The plates were sealed with Topseal-S plate sealers, left for two hours then spun at 2500 rpm, 1124×g., for 5 minutes. The plates were read on a Topcount for 30 seconds per well. […]
E. coli paste was resuspended in 10 ml/g of NETN buffer (50 mM Tris pH 7.5, 120 mM NaCl, 1 mM EDTA, 0.5% v/v NP-40, 1 mM PMSF, 1 ug/mnl leupeptin, 1 ug/ml aprotinin and 1 ug/ml pepstatin) and sonicated for 2×45 seconds per 100 ml homogenate. […] The final product was analysed by Sodium Dodeca Sulfate (SDS) PAGE (Polyacrylamide gel) using 8-16% Tris-Glycine gels (Novex, San Diego, USA).
The open reading frames of CDK2 and Cyclin E were isolated by reverse transcriptase-PCR using HeLa cell and activated T cell mRNA as a template and cloned into the insect expression vector pVL1393 (obtained from Invitrogen 1995 catalogue number: V1392-20). […]
For orientation: In a scintillation proximity assay essentially only radioactivity close to the scintillant gives light.

Turning to `CC(C)NCCCNS(=O)(=O)c1ccc(Nc2ncc(C#N)c(N3CCOCC3)n2)cc1` [Example 1, 5-Cyano-4-morpholino-2-{4-[N-(3-isopropylaminopropyl)sulphamoyl]anilino}pyrimidine], the concentration for half-maximal inhibition (IC50) (commonly the concentration needed to halve the response being measured) came to 148 nM.

(Values after US6908920B2, “Pyrimidine derivatives” (AstraZeneca AB, priority 2000, dated 2005).)
